{
  "source": "patent US20250084101A1",
  "about": "“COMPOUND FOR INHIBITING AND DEGRADING IRAK4, AND PHARMACEUTICAL COMPOSITION AND PHARMACEUTICAL APPLICATION THEREOF” (XIZANG HAISCO PHARMACEUTICAL CO., LTD., priority 2022, published 2025)",
  "key": {"[1]": {"experiment": "Pharmacokinetic test in mice", "type": "in vivo, ICR mice", "details": "plasma, i.g. 10 mg/kg", "experimental": "Experimental animals: Male ICR mice, about 25 g, 6 mice/compound, purchased from Chengdu Ddossy Experimental Animals Co., Ltd.\nTest design: On the day of the experiment, 6 ICR mice were randomly grouped according to their body weights. The animals were fasted with water available for 12 to 14 h one day before the administration, and were fed 4 h after the administration.\n• Vehicle for intravenous administration: 5% DMA+5% Solutol+90% Saline; • Vehicle for intragastric administration: 5% DMSO+30% PEG400+65% (20% SBE-CD); (DMSO: dimethyl sulfoxide; DMA: dimethylacetamide; Solutol: polyethylene glycol-15-hydroxystearate; PEG400: polyethylene glycol 400; SBE-β-CD: sulfobutyl-β-cyclodextrin; Saline: physiological saline)\nBefore and after the administration, 0.15 mL of blood was taken from the orbit of the animals under isoflurane anesthesia and placed in an EDTAK2 centrifuge tube. The blood was centrifuged at 5000 rpm and 4° C. for 10 min to collect plasma. The blood collection time points for the intravenous administration group and intragastric administration group were 0 min, 5 min, 15 min, 30 min, 1 h, 2 h, 4 h, 7 h and 24 h. Before analysis and detection, all samples were stored at −60° C. The samples were analyzed quantitatively by LC-MS/MS."}, "IRAK4 protein": {"target": "T1, IRAK4 protein (Homo sapiens, UniProt Q9NWZ3)", "T1 construct": "endogenous in cells; host or cells: human peripheral blood mononuclear cells (hPBMC) from healthy volunteers", "T1 sequence (Q9NWZ3 1-460)": "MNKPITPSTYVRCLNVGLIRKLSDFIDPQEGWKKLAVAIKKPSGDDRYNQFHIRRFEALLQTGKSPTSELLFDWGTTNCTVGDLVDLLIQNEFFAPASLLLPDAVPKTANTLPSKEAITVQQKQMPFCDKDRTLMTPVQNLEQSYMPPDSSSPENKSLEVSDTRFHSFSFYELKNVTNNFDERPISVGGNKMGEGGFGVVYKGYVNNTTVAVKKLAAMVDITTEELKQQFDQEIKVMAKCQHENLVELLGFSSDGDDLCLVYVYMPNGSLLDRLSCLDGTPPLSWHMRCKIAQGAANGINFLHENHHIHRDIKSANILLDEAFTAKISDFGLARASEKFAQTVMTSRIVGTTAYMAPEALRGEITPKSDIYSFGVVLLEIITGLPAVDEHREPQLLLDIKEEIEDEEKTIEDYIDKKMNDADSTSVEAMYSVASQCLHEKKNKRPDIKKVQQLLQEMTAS", "experiment": "IRAK4 degradation activity in hPBMC cells (24 hours)", "type": "cell-based", "experimental": "hPBMC cells are human peripheral blood mononuclear cells. Peripheral venous blood was taken from healthy volunteers, and hPBMCs were isolated using Ficoll density gradient centrifugation (Ficoll-Paque™ PLUS 1.077, GE, Cat. 17-1140-02). Culture conditions: RPMI-1640+10% FBS+1% penicillin-streptomycin solution. The cells were cultured in an incubator at 37° C. and 5% CO2. The cells were plated in a 24-well plate at 1×10^6 cells/well. After plating, compounds at different concentrations were added, and the cells were cultured in an incubator at 37° C. and 5% CO2 for 24 hours. After the culture was completed, the cells were collected, and RIPA lysis buffer (beyotime, Cat. P0013B) was added. The cells were lysed on ice for 20 minutes, and then centrifuged at 12000 rpm at 4° C. for 10 minutes. The protein sample of the supernatant was collected, the protein was quantified using a BCA kit (Beyotime, Cat. P0009), and then the protein was diluted to 1 mg/mL. The expression of IRAK4 (CST, Cat. 4363S) and the internal reference cofilin (CST, Cat. 5175S) were detected using a fully automated western blot quantitative analyzer (Proteinsimple). The expression level of IRAK4 relative to the internal reference was calculated using compass software. The remaining IRAK4 protein IRAK4% relative to the vehicle control group at different doses was calculated using formula (1), and the IRAK4 protein degradation relative to the vehicle control group at different doses was calculated using formula (2), where IRAK4administration was the expression level of IRAK4 in the administration groups at different doses, and IRAK4vehicle was the expression level of IRAK4 in the vehicle control group. An IRAK4 degradation-drug concentration curve was fit using Graphpad Prism 8 software, and the DC50 was calculated."}, "[2]": {"target": "T2, hERG potassium ion channel (Homo sapiens, UniProt Q12809)", "T2 construct": "expressed in transfected cells; host or cells: CHO (Chinese hamster ovary) cells stably expressing hERG", "T2 sequence (Q12809 whole entry)": "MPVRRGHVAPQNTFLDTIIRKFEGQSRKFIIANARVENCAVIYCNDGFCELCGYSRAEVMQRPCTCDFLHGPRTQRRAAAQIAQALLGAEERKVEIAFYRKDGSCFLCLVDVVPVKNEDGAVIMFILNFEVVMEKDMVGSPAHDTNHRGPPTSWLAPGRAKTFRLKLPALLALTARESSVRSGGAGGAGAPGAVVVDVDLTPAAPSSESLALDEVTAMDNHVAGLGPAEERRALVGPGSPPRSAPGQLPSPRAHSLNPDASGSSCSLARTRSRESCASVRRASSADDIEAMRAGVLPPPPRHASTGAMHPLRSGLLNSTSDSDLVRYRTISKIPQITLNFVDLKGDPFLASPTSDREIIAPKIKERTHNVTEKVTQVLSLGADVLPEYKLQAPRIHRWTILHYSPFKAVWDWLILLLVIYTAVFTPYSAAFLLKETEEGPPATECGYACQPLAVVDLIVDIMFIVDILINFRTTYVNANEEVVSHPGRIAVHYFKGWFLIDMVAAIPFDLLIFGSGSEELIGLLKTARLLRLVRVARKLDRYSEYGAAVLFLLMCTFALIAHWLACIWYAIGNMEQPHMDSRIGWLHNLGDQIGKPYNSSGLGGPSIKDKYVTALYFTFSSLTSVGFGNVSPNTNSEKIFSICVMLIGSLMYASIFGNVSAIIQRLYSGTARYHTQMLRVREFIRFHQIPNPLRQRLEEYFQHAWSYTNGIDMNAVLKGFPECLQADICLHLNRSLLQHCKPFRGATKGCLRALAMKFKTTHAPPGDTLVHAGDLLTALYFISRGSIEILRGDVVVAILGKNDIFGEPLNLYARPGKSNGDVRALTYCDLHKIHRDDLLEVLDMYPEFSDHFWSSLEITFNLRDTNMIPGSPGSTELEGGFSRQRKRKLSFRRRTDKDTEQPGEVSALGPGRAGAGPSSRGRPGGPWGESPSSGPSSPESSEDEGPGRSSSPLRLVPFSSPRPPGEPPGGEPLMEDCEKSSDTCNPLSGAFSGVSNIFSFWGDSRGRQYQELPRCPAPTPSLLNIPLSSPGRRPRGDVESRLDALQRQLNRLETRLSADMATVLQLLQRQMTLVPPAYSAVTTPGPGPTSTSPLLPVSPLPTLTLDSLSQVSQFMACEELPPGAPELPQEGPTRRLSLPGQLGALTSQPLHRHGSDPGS", "experiment": "Effect on hERG potassium ion channel (manual patch-clamp, CHO cells)", "type": "cell-based", "details": "CHO cells stably expressing hERG, whole cell patch-clamp; read-out: IC50 for inhibitory effect on hERG potassium channel current", "excerpt": "Experimental platform: electrophysiological manual patch-clamp system\nCell line: Chinese hamster ovary (CHO) cell line stably expressing hERG potassium ion channel\nExperimental method: In CHO (Chinese Hamster Ovary) cells stably expressing hERG potassium channel, whole cell patch-clamp technique was used to record hERG potassium channel current at room temperature. The glass microelectrode was made of a glass electrode blank (BF150-86-10, Sutter) by a puller. The tip resistance after filling the liquid in the electrode was about 2-5 MQ. The glass microelectrode can be connected to the patch-clamp amplifier by inserting the glass microelectrode into an amplifier probe. The clamping voltage and data recording were controlled and recorded by the pClamp 10 software through a computer. The sampling frequency was 10 kHz, and the filtering frequency was 2 kHz. After the whole cell records were obtained, the cells were clamped at −80 mV, and the step voltage that induced the hERG potassium current (lhERG) was depolarized from −80 mV to +20 mV for 2 s, then repolarized to −50 mV, and returned to −80 mV after 1 s. This voltage stimulation was given every 10 s, and the administration process was started after the hERG potassium current was confirmed to be stable (at least 1 minute). The compound was administered for at least 1 minute at each test concentration, and at least 2 cells (n≥2) were tested at each concentration.\nData processing: Data analysis processing was carried out by using pClamp 10, GraphPad Prism 5 and Excel software. The inhibition degree of hERG potassium current (peak value of hERG tail current induced at −50 mV) at different compound concentrations was calculated by the following formula:\n[formula] • where Inhibition % represents the percentage of inhibition of hERG potassium current by the compound, and l and lo represent the amplitude of hERG potassium current after and before the administration, respectively.\nCompound IC50 was calculated using GraphPad Prism 5 software by fitting according to the following equation:\n[formula] • where X represents the Log value of the tested concentration of the test sample, Y represents the inhibition percentage at the corresponding concentration, and Bottom and Top represent the minimum and maximum inhibition percentage, respectively."}},
  "data": [
    {"compound": "Cn1nc(C2CCC(=O)NC2=O)c2cccc(C#CCO[C@@H]3CCN(C[C@H]4CC[C@H](n5cc(NC(=O)c6cnn7ccc(N8CCO[C@@H](CO)C8)nc67)c(C(F)F)n5)CC4)C[C@@H]3F)c21", "note": "(single isomer, unassigned) [Chiral isomer 1 of compound 19]", "values": [
      {"measurement": "AUC(0-t)", "setting": "[1]", "value": "13407 ± 4034", "unit": "ng·h/mL"},
      {"measurement": "DC50", "setting": "IRAK4 protein", "value": "< 0.02", "unit": "µM"},
      {"measurement": "IC50", "setting": "[2]", "value": "> 20", "unit": "µM"}
    ]}
  ]
}
